One may read the IC50 as the concentration needed to halve the response being measured. High values mean weaker potency in that assay, low ones greater potency in that assay.

This note sets out measurements from BindingDB's records for patent US11964973 (Bristol-Myers Squibb, 2024).

Test [1] has as its target Diacylglycerol kinase zeta (Homo sapiens, UniProt Q13574). Put plainly: In Vitro DGK Inhibition Assay. The method, then: (§1) The DGKα and DGKζ reactions were performed using either extruded liposome (DGKα and DGKζ LIPGLO assays). […] Luminescence was recorded using an EnVision microplate reader.
In test [2] the target is Diacylglycerol kinase alpha (Homo sapiens, UniProt P23743). As to the kind of experiment: In Vitro DGK Inhibition Assay. The method, then:
as §1

Sequence of Diacylglycerol kinase zeta (Q13574 as listed by the source): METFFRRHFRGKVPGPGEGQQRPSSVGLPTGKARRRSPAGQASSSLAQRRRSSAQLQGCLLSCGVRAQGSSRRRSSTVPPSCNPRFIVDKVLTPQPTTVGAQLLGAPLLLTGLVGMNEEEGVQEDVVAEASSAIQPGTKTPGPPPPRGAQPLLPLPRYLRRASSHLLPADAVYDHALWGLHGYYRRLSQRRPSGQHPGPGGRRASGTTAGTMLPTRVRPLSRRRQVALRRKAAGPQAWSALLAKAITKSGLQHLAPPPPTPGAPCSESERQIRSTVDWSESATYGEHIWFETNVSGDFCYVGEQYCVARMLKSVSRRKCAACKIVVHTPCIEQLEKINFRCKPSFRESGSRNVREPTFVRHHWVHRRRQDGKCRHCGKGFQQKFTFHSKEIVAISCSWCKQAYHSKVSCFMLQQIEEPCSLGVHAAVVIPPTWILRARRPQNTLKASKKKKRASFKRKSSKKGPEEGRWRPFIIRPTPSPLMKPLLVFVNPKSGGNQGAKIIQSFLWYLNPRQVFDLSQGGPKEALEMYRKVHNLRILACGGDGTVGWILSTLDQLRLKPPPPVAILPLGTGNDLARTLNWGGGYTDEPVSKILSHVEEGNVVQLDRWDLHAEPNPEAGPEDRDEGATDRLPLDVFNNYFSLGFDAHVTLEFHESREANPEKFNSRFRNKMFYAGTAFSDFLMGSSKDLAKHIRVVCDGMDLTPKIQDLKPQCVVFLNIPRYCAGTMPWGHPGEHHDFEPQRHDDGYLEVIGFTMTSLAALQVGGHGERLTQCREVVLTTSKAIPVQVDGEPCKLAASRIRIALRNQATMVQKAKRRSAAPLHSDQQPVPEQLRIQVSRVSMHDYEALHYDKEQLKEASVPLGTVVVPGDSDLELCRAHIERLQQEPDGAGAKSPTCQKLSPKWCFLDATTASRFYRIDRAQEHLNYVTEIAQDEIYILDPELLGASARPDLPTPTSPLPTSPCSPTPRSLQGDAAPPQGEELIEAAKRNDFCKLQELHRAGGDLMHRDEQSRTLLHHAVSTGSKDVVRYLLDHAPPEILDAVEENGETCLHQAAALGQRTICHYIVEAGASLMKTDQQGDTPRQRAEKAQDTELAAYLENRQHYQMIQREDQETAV
Sequence of Diacylglycerol kinase alpha (P23743 whole entry): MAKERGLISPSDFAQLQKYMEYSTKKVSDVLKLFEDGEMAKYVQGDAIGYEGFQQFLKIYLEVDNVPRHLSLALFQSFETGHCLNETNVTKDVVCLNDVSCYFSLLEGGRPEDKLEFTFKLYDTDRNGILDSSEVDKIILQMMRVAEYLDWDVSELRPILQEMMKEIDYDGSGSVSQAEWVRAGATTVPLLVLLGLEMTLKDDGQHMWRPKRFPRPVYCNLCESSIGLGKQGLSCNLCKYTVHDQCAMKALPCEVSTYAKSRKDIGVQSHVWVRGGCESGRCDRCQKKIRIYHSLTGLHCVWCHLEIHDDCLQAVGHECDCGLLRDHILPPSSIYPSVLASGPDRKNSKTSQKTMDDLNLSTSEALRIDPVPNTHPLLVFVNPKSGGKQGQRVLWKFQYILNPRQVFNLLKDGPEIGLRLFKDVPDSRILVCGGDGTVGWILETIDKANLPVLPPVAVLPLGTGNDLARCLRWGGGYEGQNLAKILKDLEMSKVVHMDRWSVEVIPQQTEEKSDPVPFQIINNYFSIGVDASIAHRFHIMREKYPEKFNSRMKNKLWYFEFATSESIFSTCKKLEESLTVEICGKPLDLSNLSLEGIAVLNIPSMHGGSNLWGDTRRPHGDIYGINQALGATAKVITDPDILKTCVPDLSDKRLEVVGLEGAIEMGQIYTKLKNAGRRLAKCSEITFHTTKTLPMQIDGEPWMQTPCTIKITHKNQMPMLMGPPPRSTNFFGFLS

With `CCO[C@H]1CN(c2cc(=O)n(C)c3ccc(C#N)nc23)CC[C@@H]1Oc1ccc(OC(C)C)cn1` (relative stereo) [US11964973, Example 397], the half-maximal inhibitory concentration (IC50) in test [1] was determined as 420 nM. In the case of `Cn1c(=O)cc(N2CCC(Oc3ccc(C(C)(C)C)cc3)CC2)c2cc(C#N)ccc21` [US11964973, Example 53], the IC50 in test [2] is 770 nM; in test [1], 2000 nM.
